Test results reported in patent US20210017607A1, “Methods of Predicting Responsiveness to Cancer Therapies” (The University of Chicago, priority 2019, published 2021).

Legend:
B6-Myc (STING^hi) tumors = test: B6-Myc syngeneic tumor growth; format: in vivo, mouse; details: immunocompetent syngeneic mice
Text: Tumor volume curves for duration of treatment are shown. […] Data are represented relative to CD45+ immune cells.
Tumor volume curves for duration of treatment are shown.

Myc-CAP-PTEN^−/− tumors = test: Myc-CAP-PTEN−/− syngeneic tumors in vivo (growth, flow cytometry); set-up: species or system mouse
Experimental: FIGS. 35A-35D. […] (35A) Myc-CAP-PTEN^−/− cells were treated with copanlisib […] (IC90 concentration) in vitro for 24 hours, and protein extracts were harvested for western blotting analysis with the indicated antibodies to analyze PI3K activation. (35B) Supernatants from (35A) were harvested for cytokine array profiling. n=3 independent in vitro experiments. (35C) Mice bearing Myc-CAP-PTEN^−/− established syngeneic tumors (200 mm^3) were treated with copanlisib (14 mg/kg, every other day, until tumors reached 2000 mm^3). Tumor volumes were monitored daily and graphed. (35D) At the end of treatment, tumors were analyzed by flow cytometry for tumor infiltrating immune cell subsets. n=5 mice per group.
FIGS. 37A and 37B. Myc-CAP-PTEN deficient cancers are resistant to ADT/PARPi/PI3Ki/combination due to an absence of macrophage infiltration/activation and secondary CD8/CD4 T cell infiltration following treatment. Syngeneic PTEN-proficient and PTEN-deficient Myc-CAP mice were treated with a single dose of degarelix, rucaparib (PARP inhibitor), BKM120 (pan-PI3K inhibitor), or anti-PD-L1 antibody, singly and in combination for 3 weeks. (37A) Tumor volumes were monitored, as indicated. (37B) Tumors were harvested at the end of treatment and macrophage infiltration and activation (upper left and right panels), and CD4 and CD8 T cell infiltration (lower left and right panels, respectively) were analyzed by flow cytometry. n=3 animals/group.
FIG. 44. […] Syngeneic mice bearing established PTEN-proficient (PTEN^+/+) and PTEN-deficient (PTEN^−/−) Myc-CAP tumors (200 mm^3) were treated with DMXAA ([…] intra-tumoral dose) for 12 days. Tumor volumes were monitored daily and graphed relative to untreated groups. n=3-5 mice per group.
(§1) FIGS. 45A and 45B. […] Syngeneic mice bearing established PTEN-proficient (PTEN^+/+) and PTEN-deficient (PTEN^−/−) Myc-CAP tumors (200 mm^3) were treated with DMXAA (500 μg, single intra-tumoral dose) for 12 days. The harvested tumors were analyzed by flow cytometry for CD45 (45A) and tumor infiltrating immune cell subsets (45B). n=3-5 mice per group.
FIGS. 46A-46C. […] Syngeneic mice bearing established PTEN-proficient (PTEN^+/+) or PTEN-deficient (PTEN^−/−) Myc-CAP tumors (200 mm^3) were treated with DMXAA (500 μg, single intra-tumoral dose) for 12 days. The harvested tumors were analyzed by flow cytometry for activation status of immune cells: (46A) MHC-II/PD-L1 expression on macrophages; (46B) 41bb/PD-1 expression on CD4+FoxP3-T-cells and (46C) on CD8+T-cells. n=3-5 mice per group.
as §1, with “FIG. 47.” for “FIGS. 45A and 45B.”, “CD4+T-cells subsets, specifically FoxP3+” for “CD45 (45A)”, “FoxP3− fractions.” for “tumor infiltrating immune cell subsets (45B).”
In vivo drug efficacy studies using murine tumor models. Wild-type (WT) C57BL/6J, FVB/NJ mice were purchased from Jackson laboratories and mice were kept in an AALAC (American Association for the Accreditation of Laboratory Animal Care) certified barrier facility at the University of Chicago. Animal work was carried out according to approved IACUC (Institutional Animal Care and Use Committee protocols). For Myc-CAP cell line based experiments, mice aged 8-10 weeks were engrafted with 1 million cells re-suspended in 1×PBS, under anesthesia. Treatments were started when tumor volumes reached approximately 250-400 mm^3, and mice were randomly allocated to treatment groups as indicated. Tumor volume was calculated using the formula: 0.5×longest diameter×(shortest diameter)^2. Euthanasia was performed for tumor ulceration and/or tumor diameter >2 cm, as per IACUC-approved protocol. All in vivo treatments were done for 20-23 days and tumor volume measurements were collected on a daily basis. For ID8 tumors, the weights (gm) as well as the abdominal girth (mm) measurements were recorded daily. […]

[1] = DMXAA 500 μg single intra-tumoral dose, 12 days
[2] = relative to PTEN-proficient counterparts
[3] = copanlisib 14 mg/kg every other day

Cc1ccc2c(=O)c3cccc(CC(=O)O)c3oc2c1C [DMXAA, 5,6-Dimethylxanthenone-4-acetic Acid]
tumor growth response (B6-Myc (STING^hi) tumors): phenocopied | Gr-MDSCs (Myc-CAP-PTEN^−/− tumors; [1]): trend towards decreasing Gr-MDSCs | global immune infiltration (CD45) (Myc-CAP-PTEN^−/− tumors; [1]): increases global immune infiltration | tumor responsiveness of PTEN-deficient relative to PTEN-proficient Myc-CAP tumors (Myc-CAP-PTEN^−/− tumors; DMXAA single intra-tumoral dose, 12 days): more responsive | response of PTEN-deficient prostate cancers to direct STING agonist (Myc-CAP-PTEN^−/− tumors; PTEN-deficient prostate cancer murine models (Example 1)): resistant | macrophage, CD4 and CD8 T-cell activation (Myc-CAP-PTEN^−/− tumors; [2]): selectively increases macrophage, CD4 and CD8 T-cell activation | regulatory T-cell infiltration (Myc-CAP-PTEN^−/− tumors; [2]): increases regulatory T-cell infiltration

COc1c(OCCCN2CCOCC2)ccc2c1N=C(NC(=O)c1cnc(N)nc1)N1CCN=C21 [copanlisib]
MDSC infiltration (Myc-CAP-PTEN^−/− tumors; [3]): decreasing | tumor growth (Myc-CAP-PTEN^−/− tumors; [3]): retards growth

CNCc1ccc(-c2[nH]c3cc(F)cc4c3c2CCNC4=O)cc1 [rucaparib]
tumor growth response (B6-Myc (STING^hi) tumors): de novo resistance
